From publication PMC10098121, “Amphipathic barbiturates as marine product mimics with cytolytic and immunogenic effects on head and neck squamous cell carcinoma cell lines” (Frontiers in Pharmacology, 2023)

How the values were obtained:
Assay type in all cases: cell-based, human
HSC-3 cells [1] = experiment: Scratch wound migration assay; settings: for wound closure in migration assay (in words): HSC-3, 10 µM, 24 h; for wound closing at the lower concentrations (in words): HSC-3, 0.1 or 1 µM, text does not separate migration and invasion
Description: Two Incucyte image lock 96-well plates (#4379, Sartorius) were coated with 50 µl myogel (0.5 mg/ml) per well. The next day, the media remaining in the wells was removed before HSC-3 cells were seeded at a density of 25,000 cells/well in 100 µl. The cells were left to adhere, and the following day, a scratch was made in the middle of each well using the Incucyte 96-pin WoundMaker tool (Sartorius). The wells were then washed once with media. For the migration assay, the media in each well was then replaced with 100 µl of media containing 0.1, 1 or 10 µM of MPM-2:0 or MPM-4:2. For the invasion assay, the media was replaced by 50 µl of a gel consisting of serum-free media, myogel (2.4 mg/ml), type I rat tail collagen (0.8 mg/ml, Corning, NY, USA) and 0.1, 1 or 10 µM of MPM-2:0 or MPM-4:2. The plate was incubated at 37°C for 1 h to let the gel solidify. Next, 100 µl of media, also containing 0.1, 1 or 10 µM of MPM-2:0 or MPM-4:2 was added on top of the gel. Both the migration and invasion plates were placed in the Incucyte S3 (Sartorius) and imaged at ×10 magnification every 2 hours for 24 h in total. The Incucyte software was used to analyze the relative wound density.

HSC-3 cells [2] = experiment: MTS viability assay with bafilomycin A1 and z-VAD-FMK; settings: HSC-3, 24 h; cisplatin 50 µM, MPM-2:0/MPM-6:0 5 µM, MPM-3:2/MPM-4:2 10 µM
Description: HSC-3 and UT-SCC-24A cells were seeded, 10,000 cells/well, in flat bottom 96-well plates and left to adhere overnight. The supernatants were then removed and replaced by 50 µl of complete DMEM/F-12 ± 100 nM BafA1 (#196000, Sigma-Aldrich, St. Louis, MO, United States) or 50 µM z-VAD-FMK (#219007, Sigma-Aldrich). The plate was then incubated for 1 hour before another 50 µl of complete DMEM/F-12 ± 100 nM BafA1 or 50 µM z-VAD-FMK as well as the MPMs or cisplatin was added. The final concentration of cisplatin was 50 µM and for the MPMs it was 5 or 10 µM for MPM-2:0 and MPM-6:0, and 10 or 20 µM for MPM-3:2 and MPM-4:2, for HSC-3 and UT-SCC-24A cells, respectively. 100 μl of media ± 1% Triton X-100 served as […]. The cells were incubated for 24 h before 20 µl of MTS reagent (CellTiter 96® Aqueous One Solution, Promega, Madison, WI, United States) was added to each well. The plate was then incubated for one more hour before absorbance was measured at 490 nm on a VersaMaxTM Microplate reader (Molecular Devices, San Jose, CA, United States). Viability was calculated using the following formula: %=Abs treated sample−Abs positive control/Abs negative control−Abs positive control x 100
At least three independent experiments were performed, with triplicate wells in each experiment.

[3] = tested on: cell surface calreticulin on UT-SCC-24A cells; experiment: Flow cytometric detection of cell surface calreticulin; settings: 24 h, cisplatin 50 µM, MPMs 5-20 µM, vs untreated
Description: This procedure was based on a published method ([Liu et al., 2020]), but was performed with some modifications. Briefly, HSC-3 and UT-SCC-24A cells were seeded, 300,000 cells/well, in 6-well plates and left to adhere overnight. The media was then removed and replaced by 2 ml complete DMEM/F-12 containing 5, 7.5, 10 or 20 µM of MPM-2:0, MPM-6:0, MPM-3:2 or MPM-4:2, or 50 µM cisplatin. Some cells were left untreated. The cells were then incubated for 24 h. Next, the cell supernatants were collected before the cells were trypsinized and spun down with the supernatants. The cells were then washed in PBS before being incubated with the viability dye Zombie Violet (#423114, BioLegend, San Diego, CA, United States) diluted 1:500 in PBS for 20 min. Next, the cells were incubated with an anti-calreticulin antibody (#ab2907, Abcam) diluted 1:100 in FACS buffer (2%BSA in PBS) for 30 min. The cells were then fixed in 4% formaldehyde for 15 min and washed twice in FACS buffer before being incubated with the secondary antibody (#A11034, Thermo Fisher Scientific) diluted 1:250 in FACS buffer for 30 min. The cells were washed in FACS buffer and analyzed on a LSR Fortessa (BD Biosciences) within 1 week. Analyses were performed in FlowJo™ v.10 (https://www.flowjo.com/).

UT-SCC-24A cells = experiment: Western blot for extracellular HMGB1; settings: 24 h, supernatant
Description: Detection of HMGB1 in the supernatant of MPM treated HSC-3 and UT-SCC-24A cells was performed as previously described ([von Hofsten et al., 2022]). Briefly, HSC-3 and UT-SCC-24A cells were seeded, 100,000 cells/well in 12-well plates and left to adhere overnight. The following day, the media was removed and replaced with media containing either 50 µM cisplatin, 5 or 10 µM MPM-2:0 or MPM-6:0, or 10 or 20 µM MPM-3:2 or MPM-4:2. The cells were incubated for 24 h before supernatants were collected and centrifuged to remove debris. Supernatant samples were mixed with DTT (final concentration 50 mM) and sample buffer before being boiled for 5 min and loaded on a NuPAGE® 10% Bis–Tris Gel (Thermo Fisher Scientific) before being electro-transferred to a polyvindiline dilfluoride (PVDF) immobilon-P membrane (Merck, Rahway, NJ, United States). The membrane was blocked for 1 h with 5% non-fat dry milk in TBST and then incubated overnight at 4°C with the primary antibody targeting HMGB1 (#ab18256, Abcam) diluted 1:1,000 in TBST 5% non-fat dry milk. Next, the membrane was washed three times in TBST and incubated with an HRP-conjugated goat anti-rabbit secondary antibody (#4050-05, Southern Biotech, Birmingham, AL, United States) diluted 1:2000 in TBST 5% non-fat dry milk at room temperature for 1 h. […]

Structure (SMILES) | wound closure in migration assay (in words) (HSC-3 cells [1]) | wound closing at the lower concentrations (in words) (HSC-3 cells [1]) | viability in the presence of BafA1 (100 nM) or z-VAD-FMK (50 µM) (in words) (HSC-3 cells [2]) | cell surface expression of calreticulin (in words) [3] | release of HMGB1 (in words) (UT-SCC-24A cells)
CN(C)CCCCN1C(=O)N(CCCCN(C)C)C(=O)C(CCCc2ccccc2)(CCCc2ccccc2)C1=O [MPM-4:2] | required more time to close the wound | trend towards faster wound closing | – | – | –
N.N.[Cl][Pt][Cl] [Cisplatin, cisplatin, reference compound] | – | – | z-VAD-FMK seemed to have some protective effects against cisplatin for both cell lines, while BafA1 had the opposite effect | did not induce any cell surface expression of calreticulin | –
NCCCCCCN1C(=O)N(CCCCCCN)C(=O)C(CCCc2ccccc2)(CCCc2ccccc2)C1=O [MPM-6:0] | – | – | z-VAD-FMK increase viability more than BafA1 | statistically significant levels of cell surface calreticulin | statistically significant
NCCN1C(=O)N(CCN)C(=O)C(CCCc2ccccc2)(CCCc2ccccc2)C1=O [MPM-2:0] | induced cell death so quickly that it was not possible to study the effect on migration or invasion | trend towards faster wound closing | – | – | statistically significant
